Columns and labels:
[1] = target: HAT1/Rbap46 enzyme complex (Homo sapiens, UniProt O14929); assay: HAT1 acetyl-click assay
[2] = Dose-finding tolerability, single i.p. injection; conditions: mice
[3] = target: MYST4/KAT6b (Homo sapiens, UniProt Q8WYB5); assay: Other acetyltransferase assay; type: biochemical; conditions: up to 100 μM
[4] = Plasma pharmacokinetics after single i.p. injection; conditions: female, CD1, mouse, intraperitoneal, 100 mg/kg
[5] = test system: H4K12Ac in A549 tumors; assay: H4K12Ac immunofluorescence in A549 tumors after single i.p. dose; conditions: tumors harvested 24 hours later
[6] = test system: H4 lysine 5 and 12 acetylation; assay: Nascent histone H4 acetylation in hTert-HME1 cells; type: cell-based, human; conditions: hTert-HME1, 12 hours
[7] = test system: A549 tumors; assay: A549 xenograft tumor growth; conditions: 50 mg/kg and 100 mg/kg i.p. once every three days; p < 0.0001
[8] = target: PCAF (Homo sapiens, UniProt Q92831); assay: Other acetyltransferase assay; type: biochemical; conditions: up to 100 μM
[9] = mouse, in vivo, ip
[10] = target: GCN5 (Homo sapiens, UniProt Q92830); assay: Other acetyltransferase assay; type: biochemical; conditions: up to 100 μM
[11] = test system: FAD-dependent oxidase; assay: FAD oxidase reaction; type: biochemical; conditions: 0.01 μM FAD
[12] = target: KAT5 (Homo sapiens, UniProt Q92993); assay: Other acetyltransferase assay; type: biochemical; conditions: up to 100 μM
[13] = test system: HCC1806 cells; assay: Cell growth inhibition; type: cell-based, human

HAT1/Rbap46 enzyme complex, sequence (O14929 whole entry): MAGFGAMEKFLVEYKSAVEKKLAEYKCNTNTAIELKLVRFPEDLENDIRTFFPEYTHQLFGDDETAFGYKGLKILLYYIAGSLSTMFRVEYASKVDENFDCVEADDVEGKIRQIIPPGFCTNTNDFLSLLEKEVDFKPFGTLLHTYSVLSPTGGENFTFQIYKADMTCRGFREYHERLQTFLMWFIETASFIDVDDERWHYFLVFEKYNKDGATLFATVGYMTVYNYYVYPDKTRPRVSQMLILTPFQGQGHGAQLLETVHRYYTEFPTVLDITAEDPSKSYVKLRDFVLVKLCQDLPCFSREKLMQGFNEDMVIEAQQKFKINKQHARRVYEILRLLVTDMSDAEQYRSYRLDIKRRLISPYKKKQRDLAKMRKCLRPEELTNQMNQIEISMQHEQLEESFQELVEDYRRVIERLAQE
HAT1/Rbap46 enzyme complex, sequence (Q16576 whole entry partner): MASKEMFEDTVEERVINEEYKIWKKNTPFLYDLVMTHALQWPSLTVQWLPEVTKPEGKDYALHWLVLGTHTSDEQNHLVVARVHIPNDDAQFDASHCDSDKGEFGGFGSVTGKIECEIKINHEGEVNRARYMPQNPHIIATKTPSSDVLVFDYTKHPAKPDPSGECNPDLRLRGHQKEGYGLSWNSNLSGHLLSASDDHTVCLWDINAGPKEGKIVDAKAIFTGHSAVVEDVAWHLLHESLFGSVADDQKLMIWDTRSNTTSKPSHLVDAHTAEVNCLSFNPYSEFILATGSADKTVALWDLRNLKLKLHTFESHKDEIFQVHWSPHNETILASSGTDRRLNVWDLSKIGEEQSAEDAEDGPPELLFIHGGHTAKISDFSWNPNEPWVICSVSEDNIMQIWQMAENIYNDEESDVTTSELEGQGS
GCN5, sequence (Q92830 whole entry): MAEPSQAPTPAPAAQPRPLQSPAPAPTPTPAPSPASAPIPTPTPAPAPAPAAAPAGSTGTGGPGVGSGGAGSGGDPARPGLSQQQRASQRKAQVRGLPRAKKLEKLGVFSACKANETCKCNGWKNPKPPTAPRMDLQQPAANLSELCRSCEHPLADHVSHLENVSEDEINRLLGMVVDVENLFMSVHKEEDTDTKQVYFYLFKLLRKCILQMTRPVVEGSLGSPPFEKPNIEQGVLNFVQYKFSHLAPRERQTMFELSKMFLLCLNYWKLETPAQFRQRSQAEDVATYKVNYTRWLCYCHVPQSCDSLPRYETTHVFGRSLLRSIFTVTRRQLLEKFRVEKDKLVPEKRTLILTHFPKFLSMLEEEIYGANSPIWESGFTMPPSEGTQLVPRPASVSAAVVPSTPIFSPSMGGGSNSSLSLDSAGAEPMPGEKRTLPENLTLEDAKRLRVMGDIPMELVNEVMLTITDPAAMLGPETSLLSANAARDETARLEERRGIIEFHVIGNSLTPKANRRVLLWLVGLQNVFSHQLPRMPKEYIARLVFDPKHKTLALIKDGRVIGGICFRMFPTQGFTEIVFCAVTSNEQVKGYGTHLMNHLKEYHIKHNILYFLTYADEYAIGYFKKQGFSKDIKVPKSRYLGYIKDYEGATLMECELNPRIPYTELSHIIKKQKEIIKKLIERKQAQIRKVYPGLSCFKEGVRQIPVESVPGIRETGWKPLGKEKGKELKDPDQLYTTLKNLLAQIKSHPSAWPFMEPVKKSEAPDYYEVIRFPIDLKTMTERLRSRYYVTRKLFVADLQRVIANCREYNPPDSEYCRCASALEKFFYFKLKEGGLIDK
KAT5, sequence (Q92993 whole entry): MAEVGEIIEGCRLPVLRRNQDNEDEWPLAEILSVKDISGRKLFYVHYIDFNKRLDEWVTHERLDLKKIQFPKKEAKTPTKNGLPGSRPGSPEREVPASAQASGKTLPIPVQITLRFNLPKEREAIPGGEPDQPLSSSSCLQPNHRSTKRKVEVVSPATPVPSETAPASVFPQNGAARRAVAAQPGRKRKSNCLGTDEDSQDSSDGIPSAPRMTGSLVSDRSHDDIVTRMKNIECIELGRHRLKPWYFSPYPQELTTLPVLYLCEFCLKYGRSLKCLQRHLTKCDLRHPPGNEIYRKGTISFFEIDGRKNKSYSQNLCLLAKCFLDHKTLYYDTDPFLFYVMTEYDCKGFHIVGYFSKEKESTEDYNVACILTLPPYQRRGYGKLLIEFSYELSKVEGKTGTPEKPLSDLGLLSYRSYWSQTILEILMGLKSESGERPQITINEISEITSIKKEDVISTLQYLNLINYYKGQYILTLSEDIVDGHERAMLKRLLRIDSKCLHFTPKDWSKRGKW
MYST4/KAT6b, sequence (Q8WYB5 whole entry): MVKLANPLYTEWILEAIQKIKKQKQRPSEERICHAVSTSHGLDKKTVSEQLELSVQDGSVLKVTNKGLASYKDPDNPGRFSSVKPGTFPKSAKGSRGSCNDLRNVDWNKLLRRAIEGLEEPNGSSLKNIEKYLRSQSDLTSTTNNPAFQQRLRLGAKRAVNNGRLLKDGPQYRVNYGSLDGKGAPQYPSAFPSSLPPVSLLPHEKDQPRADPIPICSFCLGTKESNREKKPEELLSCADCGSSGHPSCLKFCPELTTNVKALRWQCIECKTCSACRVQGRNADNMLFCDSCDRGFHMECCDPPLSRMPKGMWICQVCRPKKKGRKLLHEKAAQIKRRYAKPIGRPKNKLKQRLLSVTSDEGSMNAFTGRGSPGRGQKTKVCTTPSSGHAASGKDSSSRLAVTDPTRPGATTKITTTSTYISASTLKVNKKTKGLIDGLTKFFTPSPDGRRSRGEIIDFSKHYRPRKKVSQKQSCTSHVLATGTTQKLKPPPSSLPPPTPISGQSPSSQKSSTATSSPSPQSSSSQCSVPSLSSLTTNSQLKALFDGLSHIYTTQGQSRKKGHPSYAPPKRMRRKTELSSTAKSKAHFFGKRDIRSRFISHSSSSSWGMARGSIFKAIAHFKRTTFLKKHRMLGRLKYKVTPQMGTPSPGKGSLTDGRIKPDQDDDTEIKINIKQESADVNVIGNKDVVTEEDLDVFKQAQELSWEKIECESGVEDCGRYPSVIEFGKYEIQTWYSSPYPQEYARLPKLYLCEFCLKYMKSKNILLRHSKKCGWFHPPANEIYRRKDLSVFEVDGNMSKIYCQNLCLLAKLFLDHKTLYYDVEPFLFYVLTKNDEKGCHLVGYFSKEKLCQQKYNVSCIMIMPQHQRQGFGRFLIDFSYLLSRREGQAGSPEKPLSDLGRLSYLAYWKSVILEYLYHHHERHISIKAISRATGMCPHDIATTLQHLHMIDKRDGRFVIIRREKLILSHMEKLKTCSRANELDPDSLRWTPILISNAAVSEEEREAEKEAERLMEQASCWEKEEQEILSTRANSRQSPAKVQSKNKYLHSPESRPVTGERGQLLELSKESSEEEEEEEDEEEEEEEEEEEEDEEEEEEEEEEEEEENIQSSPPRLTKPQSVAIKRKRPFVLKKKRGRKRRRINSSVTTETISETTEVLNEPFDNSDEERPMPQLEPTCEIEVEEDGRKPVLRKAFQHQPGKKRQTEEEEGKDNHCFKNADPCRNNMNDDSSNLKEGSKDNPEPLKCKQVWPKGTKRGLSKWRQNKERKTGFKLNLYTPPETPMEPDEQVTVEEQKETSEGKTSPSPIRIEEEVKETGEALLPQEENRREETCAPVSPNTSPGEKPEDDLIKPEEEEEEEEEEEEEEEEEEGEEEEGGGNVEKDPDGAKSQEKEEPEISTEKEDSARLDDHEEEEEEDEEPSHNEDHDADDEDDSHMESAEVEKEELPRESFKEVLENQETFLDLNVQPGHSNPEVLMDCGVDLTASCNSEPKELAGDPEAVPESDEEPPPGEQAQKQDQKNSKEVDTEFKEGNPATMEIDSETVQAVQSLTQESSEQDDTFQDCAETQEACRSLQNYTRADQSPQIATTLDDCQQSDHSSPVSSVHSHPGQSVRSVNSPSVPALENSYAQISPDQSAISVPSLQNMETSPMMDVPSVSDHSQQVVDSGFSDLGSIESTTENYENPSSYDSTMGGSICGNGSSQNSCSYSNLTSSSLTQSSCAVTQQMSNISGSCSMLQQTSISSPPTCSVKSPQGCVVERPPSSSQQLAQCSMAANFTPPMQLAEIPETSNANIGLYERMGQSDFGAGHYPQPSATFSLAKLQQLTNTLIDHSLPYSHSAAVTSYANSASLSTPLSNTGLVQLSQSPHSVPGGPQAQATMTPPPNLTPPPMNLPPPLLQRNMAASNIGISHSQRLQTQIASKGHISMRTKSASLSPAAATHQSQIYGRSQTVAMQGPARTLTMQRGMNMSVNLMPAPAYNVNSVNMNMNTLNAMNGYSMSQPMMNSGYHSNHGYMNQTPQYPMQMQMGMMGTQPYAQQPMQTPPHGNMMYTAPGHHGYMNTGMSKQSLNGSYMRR
PCAF, sequence (Q92831 whole entry): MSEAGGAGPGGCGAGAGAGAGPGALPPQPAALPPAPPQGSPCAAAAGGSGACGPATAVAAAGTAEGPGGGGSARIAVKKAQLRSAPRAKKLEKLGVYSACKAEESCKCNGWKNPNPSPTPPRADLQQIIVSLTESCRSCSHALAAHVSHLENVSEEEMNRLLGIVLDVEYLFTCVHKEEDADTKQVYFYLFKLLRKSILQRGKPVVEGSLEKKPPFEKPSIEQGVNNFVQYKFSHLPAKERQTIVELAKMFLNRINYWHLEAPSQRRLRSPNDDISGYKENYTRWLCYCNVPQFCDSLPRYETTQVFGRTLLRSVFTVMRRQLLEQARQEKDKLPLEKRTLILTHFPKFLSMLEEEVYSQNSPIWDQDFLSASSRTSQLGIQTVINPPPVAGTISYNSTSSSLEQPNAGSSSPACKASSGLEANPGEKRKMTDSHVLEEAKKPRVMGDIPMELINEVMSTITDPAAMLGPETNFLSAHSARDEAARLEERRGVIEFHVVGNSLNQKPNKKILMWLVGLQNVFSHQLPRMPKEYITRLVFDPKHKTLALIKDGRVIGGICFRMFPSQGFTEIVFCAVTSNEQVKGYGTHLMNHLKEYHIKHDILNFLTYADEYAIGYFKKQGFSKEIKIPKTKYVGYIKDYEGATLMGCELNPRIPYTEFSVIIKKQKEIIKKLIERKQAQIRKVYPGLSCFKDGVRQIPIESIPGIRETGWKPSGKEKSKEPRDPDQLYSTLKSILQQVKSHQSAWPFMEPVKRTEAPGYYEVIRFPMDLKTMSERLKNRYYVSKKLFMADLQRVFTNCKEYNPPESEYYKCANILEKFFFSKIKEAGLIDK

## 3-(3-(7-Chloro-8-ethyl-2,4-dioxo-3,4-dihydrobenzo[g]pteridin-10(2H)-yl)propoxy)benzonitrile [Compound 37i]
[1]
  HAT1 inhibitory activity (in words): interfered with enzyme inhibition

## CCc1cc2c(cc1Cl)nc1c(=O)[nH]c(=O)nc-1n2CCOCc1cccc(F)c1 [Compound 20b, 7-Chloro-8-ethyl-10-(2-((3-fluorobenzyl)oxy)ethyl)benzo[g]pteridine-2,4(3H,10H)-dione]
[1]
  HAT1 inhibitory activity (in words): interfered with enzyme inhibition

## CCc1cc2c(cc1Cl)nc1c(=O)[nH]c(=O)nc-1n2CCOCc1ccc(C#N)cc1 [Compound 24g, 4-((2-(7-Chloro-8-ethyl-2,4-dioxo-3,4-dihydrobenzo[g]pteridin-10(2H)-yl)ethoxy)methyl)benzonitrile]
[1]
  HAT1 inhibitory activity (in words): interfered with enzyme inhibition

## Cc1cc2nc3c(=O)[nH]c(=O)nc-3n(C[C@H](O)[C@H](O)[C@H](O)COP(=O)(O)OP(=O)(O)OC[C@H]3O[C@@H](n4cnc5c(N)ncnc54)[C@H](O)[C@@H]3O)c2cc1C [FAD, flavin-adenine-dinucleotide, reference compound]
[1]
  HAT1 inhibitory activity (in words): no detectable inhibitory activity

## Cc1cc2nc3c(=O)[nH]c(=O)nc-3n(C[C@H](O)[C@H](O)[C@H](O)COP(=O)(O)O)c2cc1C [FMN, flavin-mononucleotide, reference compound]
[1]
  HAT1 inhibitory activity (in words): no detectable inhibitory activity

## CCc1cc2c(cc1Cl)nc1c(=O)[nH]c(=O)nc-1n2CCOCC(C)C [JG-2016, 7-Chloro-8-ethyl-10-(2-isobutoxyethyl)benzo[g]pteridine-2,4(3H,10H)-dione]
[2]
  dose at which signs of distress were observed: 500 mg/kg
[3]
  inhibitory activity towards MYST4/KAT6b: minimal or undetectable inhibitory activity
[4]
  concentration at 72 h: 2050 ± 233 nM
[5]
  H4K12Ac signal in tumors: dose-dependent decrease
[6]
  H4 lysine 5 and 12 acetylation in cells: dose-dependent inhibition
[7]
  tumor growth versus vehicle: significantly impaired tumor growth
[8]
  inhibitory activity towards PCAF: minimal or undetectable inhibitory activity
[9]
  tolerated dose with minimal toxicity: up to 250 mg/kg
[10]
  inhibitory activity towards GCN5: minimal or undetectable inhibitory activity
[11]
  inhibition of FAD-dependent oxidase: no significant inhibitory activity
[12]
  inhibitory activity towards KAT5: minimal or undetectable inhibitory activity

## CC(=O)SCCNC(=O)CCNC(=O)[C@H](O)C(C)(C)COP(=O)(O)OP(=O)(O)OC[C@H]1O[C@@H](n2cnc3c(N)ncnc32)[C@H](O)[C@@H]1OP(=O)(O)O [acetyl-CoA]
[1]
  preference of enzyme for native cofactor versus 4-pentynoyl-CoA: > 100 fold
[1]; 1 μM acetyl-CoA, 100 μM 4-pentynoyl-CoA
  suppression of pentynoylated product: completely suppressed

## Cc1cc2nc3[nH]c(=O)[nH]c(=O)c3nc2cc1C [di-methyl-alloxazine, reference compound]
[1]
  HAT1 inhibitory activity (in words): no detectable inhibitory activity

## Cc1cc2nc3c(=O)[nH]c(=O)nc-3n(C[C@H](O)[C@H](O)[C@H](O)CO)c2cc1N(C)C [roseoflavin, reference compound]
[13]
  cell growth inhibitory activity (in words): strong cell growth inhibitory properties
[1]
  HAT1 inhibitory activity (in words): inactive
